Data reported in PubChem BioAssay (NCI).
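Five compound concentrations were applied to cells in 96-well plates for 48 hours; endpoints were derived by simple linear interpolation of the resulting dose-response curve. TGI is the concentration that stops growth completely.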

How the values were obtained:
Assay in all cases: NCI-60 cell line screen, 48 h
HS 578T breast = tested on: HS 578T breast
COLO 205 colon = tested on: COLO 205 colon
MOLT-4 leukemia = tested on: MOLT-4 leukemia
UACC-62 melanoma = tested on: UACC-62 melanoma
A549 NSCLC = tested on: A549 NSCLC
NCI/ADR-RES ovarian = tested on: NCI/ADR-RES ovarian
SK-OV-3 ovarian = tested on: SK-OV-3 ovarian
RXF 393 renal = tested on: RXF 393 renal
MALME-3M melanoma = tested on: MALME-3M melanoma
IGROV1 ovarian = tested on: IGROV1 ovarian
MDA-MB-435 = tested on: MDA-MB-435
NCI-H226 lung = tested on: NCI-H226 lung
OVCAR-5 ovarian = tested on: OVCAR-5 ovarian
HCT-116 colon = tested on: HCT-116 colon
EKVX NSCLC = tested on: EKVX NSCLC
SR leukemia = tested on: SR leukemia
SK-MEL-28 melanoma = tested on: SK-MEL-28 melanoma
SF-268 CNS = tested on: SF-268 CNS
KM12 colon = tested on: KM12 colon
SNB-75 CNS = tested on: SNB-75 CNS
SF-295 CNS = tested on: SF-295 CNS
HCT-15 colon = tested on: HCT-15 colon
HL-60(TB) leukemia = tested on: HL-60(TB) leukemia
SF-539 CNS = tested on: SF-539 CNS
MDA-MB-231 breast = tested on: MDA-MB-231 breast
MCF7 breast = tested on: MCF7 breast
SW-620 colon = tested on: SW-620 colon
CCRF-CEM leukemia = tested on: CCRF-CEM leukemia
OVCAR-3 ovarian = tested on: OVCAR-3 ovarian
A498 renal = tested on: A498 renal
HOP-62 NSCLC = tested on: HOP-62 NSCLC
UACC-257 melanoma = tested on: UACC-257 melanoma
UO-31 renal = tested on: UO-31 renal
HCC-2998 colon = tested on: HCC-2998 colon
HOP-92 NSCLC = tested on: HOP-92 NSCLC
HT29 colon = tested on: HT29 colon
DU-145 prostate = tested on: DU-145 prostate
NCI-H460 lung = tested on: NCI-H460 lung
K-562 leukemia = tested on: K-562 leukemia
LOX IMVI melanoma = tested on: LOX IMVI melanoma
MDA-N = tested on: MDA-N
T-47D breast = tested on: T-47D breast
TK-10 renal = tested on: TK-10 renal
BT-549 breast = tested on: BT-549 breast
NCI-H522 lung = tested on: NCI-H522 lung
M14 melanoma = tested on: M14 melanoma
PC-3 prostate = tested on: PC-3 prostate
CAKI-1 renal = tested on: CAKI-1 renal
ACHN renal = tested on: ACHN renal
RPMI-8226 leukemia = tested on: RPMI-8226 leukemia
SK-MEL-2 melanoma = tested on: SK-MEL-2 melanoma
OVCAR-4 ovarian = tested on: OVCAR-4 ovarian
786-0 renal = tested on: 786-0 renal
NCI-H23 lung = tested on: NCI-H23 lung
SK-MEL-5 melanoma = tested on: SK-MEL-5 melanoma
OVCAR-8 ovarian = tested on: OVCAR-8 ovarian
U251 CNS = tested on: U251 CNS
SNB-19 CNS = tested on: SNB-19 CNS
SN12C renal = tested on: SN12C renal
HOP-18 NSCLC = tested on: HOP-18 NSCLC
KM20L2 colon = tested on: KM20L2 colon
DMS 273 small cell lung = tested on: DMS 273 small cell lung
DLD-1 colon = tested on: DLD-1 colon
M19-MEL melanoma = tested on: M19-MEL melanoma
LXFL 529 NSCLC = tested on: LXFL 529 NSCLC
DMS 114 small cell lung = tested on: DMS 114 small cell lung
SNB-78 CNS = tested on: SNB-78 CNS
XF 498 CNS = tested on: XF 498 CNS

Measured: TGI

c1ccc2c(c1)nnn2C1CCCCO1 (stereo not given)
not listed: HOP-18 NSCLC | KM20L2 colon | DMS 273 small cell lung | DLD-1 colon | M19-MEL melanoma | LXFL 529 NSCLC | DMS 114 small cell lung | SNB-78 CNS | XF 498 CNS
> 100 µM: all other assays above

NC(=O)NNC/C(Cl)=C(\Cl)C(=O)O
not listed: HS 578T breast | NCI/ADR-RES ovarian | MDA-MB-435 | SR leukemia | MDA-MB-231 breast | MCF7 breast | HOP-92 NSCLC | DU-145 prostate | MDA-N | T-47D breast | BT-549 breast | PC-3 prostate
> 100 µM: all other assays above
